Source: the supplement of paper PMC11451515

System: NOMO1
Test: cell viability relative to DMSO control; higher = less cytotoxic
Conditions: 48 h
Summary of the method: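 Leukemia cells (NOMO1 or SEM, 500 cells/well; P12-Ichikawa, 1000 cells/well) were seeded in 5 μl in 1536-well plates after at least four passages of adaptation to each medium. They received library compounds in DMSO by pin dosing, 11 threefold points from 47 μM to 0.79 nM. Luminescence with CellTiter-Glo One was read after 48 h at 37°C. Viability is stated per plate relative to DMSO wells, with cell-free wells as background.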

[1] = HPLM + 10% dialyzed FBS, 0.000781 µM
[2] = HPLM + 10% dialyzed FBS, 0.00234 µM
[3] = HPLM + 10% dialyzed FBS, 0.00702 µM
[4] = HPLM + 10% dialyzed FBS, 0.0211 µM
[5] = HPLM + 10% dialyzed FBS, 0.0632 µM
[6] = HPLM + 10% dialyzed FBS, 0.19 µM
[7] = HPLM + 10% dialyzed FBS, 0.569 µM
[8] = HPLM + 10% dialyzed FBS, 1.71 µM
[9] = HPLM + 10% dialyzed FBS, 5.12 µM
[10] = HPLM + 10% dialyzed FBS, 15.4 µM
[11] = HPLM + 10% dialyzed FBS, 46.1 µM
[12] = RPMI 5 mM glucose + 10% FBS, 0.000781 µM
[13] = RPMI 5 mM glucose + 10% FBS, 0.00234 µM
[14] = RPMI 5 mM glucose + 10% FBS, 0.00702 µM
[15] = RPMI 5 mM glucose + 10% FBS, 0.0211 µM
[16] = RPMI 5 mM glucose + 10% FBS, 0.0632 µM
[17] = RPMI 5 mM glucose + 10% FBS, 0.19 µM
[18] = RPMI 5 mM glucose + 10% FBS, 0.569 µM
[19] = RPMI 5 mM glucose + 10% FBS, 1.71 µM
[20] = RPMI 5 mM glucose + 10% FBS, 5.12 µM
[21] = RPMI 5 mM glucose + 10% FBS, 15.4 µM
[22] = RPMI 5 mM glucose + 10% FBS, 46.1 µM
[23] = RPMI 5 mM glucose + 10% dialyzed FBS, 0.000781 µM
[24] = RPMI 5 mM glucose + 10% dialyzed FBS, 0.00234 µM
[25] = RPMI 5 mM glucose + 10% dialyzed FBS, 0.00702 µM
[26] = RPMI 5 mM glucose + 10% dialyzed FBS, 0.0211 µM
[27] = RPMI 5 mM glucose + 10% dialyzed FBS, 0.0632 µM
[28] = RPMI 5 mM glucose + 10% dialyzed FBS, 0.19 µM
[29] = RPMI 5 mM glucose + 10% dialyzed FBS, 0.569 µM
[30] = RPMI 5 mM glucose + 10% dialyzed FBS, 1.71 µM
[31] = RPMI 5 mM glucose + 10% dialyzed FBS, 5.12 µM
[32] = RPMI 5 mM glucose + 10% dialyzed FBS, 15.4 µM
[33] = RPMI 5 mM glucose + 10% dialyzed FBS, 46.1 µM

Structure (SMILES) | cell viability [1] | cell viability [2] | cell viability [3] | cell viability [4] | cell viability [5] | cell viability [6] | cell viability [7] | cell viability [8] | cell viability [9] | cell viability [10] | cell viability [11] | cell viability [12] | cell viability [13] | cell viability [14] | cell viability [15] | cell viability [16] | cell viability [17] | cell viability [18] | cell viability [19] | cell viability [20] | cell viability [21] | cell viability [22] | cell viability [23] | cell viability [24] | cell viability [25] | cell viability [26] | cell viability [27] | cell viability [28] | cell viability [29] | cell viability [30] | cell viability [31] | cell viability [32] | cell viability [33]
C/C(=C\c1csc(C)n1)[C@@H]1C[C@@H]2O[C@@H]2CCC[C@H](C)[C@H](O)[C@@H](C)C(=O)C(C)(C)[C@@H](O)CC(=O)O1 | 33.3% | 25.8% | 27.8% | 28.4% | 29.2% | 31.6% | 30.1% | 30.5% | 34.8% | 34% | 30.7% | 27.2% | 19.5% | 17.9% | 20.3% | 18.1% | 18% | 17.8% | 18.7% | 18.1% | 22.8% | 19.8% | 84.5% | 20.9% | 20% | 21.6% | 23.3% | 20.9% | 21.7% | 25.8% | 24.2% | 31.1% | 23.3%
C[N+](C)(C)CC(=O)O.[Cl-] | 63.1% | 90.5% | 85% | 94.9% | 94.4% | 86.3% | 95.6% | 89.5% | 104% | 86.5% | 93.9% | 77.1% | 86% | 80.4% | 81.6% | 85.5% | 87.6% | 87.8% | 80.3% | 83.2% | 84.2% | 81.1% | 68.8% | 88.1% | 79.7% | 89.3% | 90.8% | 89.1% | 92.3% | 91.5% | 83.8% | 92% | 84.7%
O=C(O)CSCC(=O)NC1CCSC1=O (stereo not drawn) | 122% | 112% | 105% | 95.1% | 118% | 119% | 107% | 117% | 106% | 112% | 122% | 105% | 105% | 111% | 99.8% | 110% | 116% | 114% | 102% | 108% | 105% | 104% | 104% | 95.7% | 114% | 104% | 109% | 113% | 108% | 118% | 105% | 100% | 102%
COc1ccc(C(=O)CC(=O)c2ccc(C(C)(C)C)cc2)cc1 | 78.3% | 107% | 92.8% | 101% | 108% | 112% | 131% | 130% | 121% | 98.3% | 105% | 101% | 108% | 107% | 110% | 121% | 113% | 122% | 104% | 117% | 122% | 121% | 73% | 102% | 99.9% | 106% | 108% | 111% | 110% | 106% | 115% | 95.7% | 111%
CN[C@H]1[C@H](O[C@@H]2[C@H](O[C@@H]3[C@@H](O)[C@@H](O)[C@@H](NC(=N)N)[C@@H](O)[C@H]3NC(=N)N)O[C@H](C)[C@@]2(O)C=O)O[C@@H](CO)[C@@H](O)[C@H]1O | 117% | 115% | 118% | 111% | 130% | 120% | 101% | 96.1% | 89% | 66.9% | 23.7% | 109% | 113% | 112% | 109% | 112% | 104% | 103% | 111% | 96.6% | 101% | 26.1% | 106% | 107% | 103% | 113% | 114% | 105% | 102% | 109% | 105% | 87.1% | 26.2%
CC(C)(C)Cn1c(N)nc2ccc(-c3[nH]c(C(C)(C)C)nc3-c3ccc(F)cc3)nc21 | 84.9% | 84.6% | 79.9% | 78.4% | 90.8% | 81% | 83.6% | 64.3% | 75.3% | 64.7% | 49.6% | 84.3% | 88.4% | 76.3% | 75.9% | 90.8% | 79.9% | 82.9% | 87.2% | 79.5% | 83.2% | 76.4% | 85.3% | 92.7% | 93.5% | 92.2% | 87.7% | 90.3% | 73.1% | 73.3% | 92% | 81.2% | 71.4%
COc1nccc(-c2c(-c3ccc(F)cc3)ncn2C2CCC(O)CC2)n1 (stereo not drawn) | 120% | 123% | 121% | 123% | 132% | 121% | 111% | 122% | 112% | 119% | 51.3% | 107% | 109% | 120% | 115% | 111% | 112% | 103% | 100% | 98.4% | 100% | 35.9% | 122% | 114% | 126% | 109% | 116% | 118% | 105% | 118% | 111% | 107% | 74.3%
CN1C2=CC(=O)/C(=N/NC(N)=O)C=C2CC1S(=O)(=O)[O-].[Na+] (stereo not drawn) | 87% | 105% | 105% | 104% | 111% | 135% | 116% | 122% | 125% | 128% | 92.5% | 108% | 109% | 111% | 115% | 117% | 128% | 120% | 117% | 122% | 116% | 111% | 105% | 112% | 114% | 111% | 118% | 126% | 124% | 123% | 128% | 119% | 103%
Oc1cc2c(cc1O)C1c3ccc(O)c(O)c3OCC1(O)C2 (stereo not drawn) | 95.1% | 89.1% | 104% | 93.5% | 111% | 107% | 102% | 115% | 111% | 105% | 110% | 102% | 92.3% | 101% | 102% | 91.9% | 96.6% | 97.7% | 94.9% | 106% | 92.2% | 93.9% | 77.6% | 87.2% | 104% | 97.2% | 99% | 106% | 107% | 110% | 103% | 103% | 102%
CCCC1=N[N](C)C2=C1\N=C(/NC2=O)C3=CC(=CC=C3OCC)[S+]([O-])(=O)N4CCN(C)CC4 | 85.1% | 83.9% | 81.6% | 83.7% | 86.1% | 87.9% | 98.8% | 82.4% | 81.1% | 83.6% | 52.8% | 79.5% | 92.9% | 77.4% | 81.6% | 76% | 90.2% | 72% | 83.7% | 77.3% | 79.3% | 76.9% | 94.4% | 88% | 91.9% | 84.5% | 72.3% | 96% | 82.3% | 77.1% | 77.4% | 85.2% | 80.8%
CO[C@H]1/C=C/O[C@@]2(C)Oc3c(C)c(O)c4c(O)c(c(/C=N\N5CCN(C6CCCC6)CC5)c(O)c4c3C2=O)NC(=O)/C(C)=C\C=C\[C@H](C)[C@H](O)[C@@H](C)[C@@H](O)[C@@H](C)[C@H](OC(C)=O)[C@@H]1C | 119% | 123% | 104% | 116% | 90.5% | 93.4% | 79.3% | 52.3% | 28.9% | 6.78% | 0.815% | 123% | 110% | 111% | 107% | 109% | 76.5% | 75.1% | 51.8% | 17.9% | 3.98% | 0.906% | 100% | 98.4% | 95.2% | 80.2% | 83.4% | 79.3% | 64.7% | 52.9% | 24.1% | 3.08% | 0.433%
Cc1ccc(NC(=O)Nc2cc(C(F)(F)F)ccc2F)cc1Nc1ccc2c(c1)NC(=O)/C2=C\c1ccc[nH]1 | – | – | – | – | – | – | – | – | – | – | – | 108% | 126% | 118% | 124% | 133% | 139% | 149% | 161% | 136% | 132% | 40.4% | 116% | 124% | 140% | 140% | 149% | 150% | 149% | 160% | 154% | 115% | 28.1%
COc1ccc2c(OCc3nnc4ccc(-c5ccccc5)nn34)ccnc2c1 | 94.4% | 98.9% | 86.7% | 92.8% | 90.2% | 93.9% | 104% | 83.9% | 94% | 104% | 65.2% | 113% | 123% | 116% | 116% | 117% | 114% | 117% | 116% | 112% | 113% | 116% | 113% | 123% | 133% | 119% | 129% | 102% | 131% | 116% | 115% | 119% | 122%
